Consider 4 compounds from patent EP0079397A1, “Asymmetrically substituted (2,4,6-triodoanilides) of dicarboxylic acids, their preparation and X-ray contrast agents containing them” (SCHERING AKTIENGESELLSCHAFT, priority 1981, dated 1983).

Where two headings read alike, the source gives them in different places.

The test system of data set [1] is Ratte. The experiment in a line: Acute intravenous toxicity (DL50) in rats. Type of data set: in vivo. The settings on record: meglumine salt solutions 180 mg Jod/ml, 0,8 ml/min, 100 g rats. As to the method: (§1) • 1) Injektion der Kontrastmittel als Megluminsalzlösungen mit 180 mg Jod/ml mit einer Geschwindigkeit von 0,8 ml/min bei 100 g schweren männlichen und weiblichen Ratten. • 2) Männlichen und weiblichen Ratten im Gewicht von etwa 100 g wurden in leichter Äthernarkose je 0,04 ml unterschiedlich konzentrierter Kontrastmittellösungen nach der Methode von Valzelli durch eine natürliche Knochenspalte des Schädels zwischen Joch- und Hinterhauptbein intrazerebral injiziert. Die Injektion erfolgte mit einer Hamilton Spritze 710 N, bei der die Einstichtiefe auf 10 mm begrenzt ist. Je Präparat wurden mindestens 4 Dosierungen an 10 Tieren untersucht. Als Wirkungskriterien wurden über den Zeitraum von 24 Stunden Exzitationszustände, schwere Haltungsanomalien, Koma und Tod bewertet. • 3) Bei grundsätzlich gleicher Versuchsanlage wie unter 2) beschrieben, wurden 200-250 g schweren Ratten die Kontrastmittel in die Cisterna suboccipitalis injiziert. Die Kontrastmittel wurden mit 3%iger Mannit-lösung verdünnt, um den osmotischen Druck anzupassen. • 4) Ratten (ca. 150 g Körpergewicht) wurde in Ithernarkose ein Polyäthylenschlauch in den Ductus choledochus eingebunden. […]

A short description of data set [2]: in vivo. Also on record: species or system Ratte. The settings on record: rat, iv, 60 mg/kg. As to the method:
• 1) Injektion der Kontrastmittel als Megluminsalzlösungen mit 180 mg Jod/ml mit einer Geschwindigkeit von 0,8 ml/min bei 100 g schweren männlichen und weiblichen Ratten. • 2) Männlichen und weiblichen Ratten im Gewicht von etwa 100 g wurden in leichter Äthernarkose je 0,04 ml unterschiedlich konzentrierter Kontrastmittellösungen nach der Methode von Valzelli durch eine natürliche Knochenspalte des Schädels zwischen Joch- und Hinterhauptbein intrazerebral injiziert. Die Injektion erfolgte mit einer Hamilton Spritze 710 N, bei der die Einstichtiefe auf 10 mm begrenzt ist. Je Präparat wurden mindestens 4 Dosierungen an 10 Tieren untersucht. Als Wirkungskriterien wurden über den Zeitraum von 24 Stunden Exzitationszustände, schwere Haltungsanomalien, Koma und Tod bewertet. • 3) Bei grundsätzlich gleicher Versuchsanlage wie unter 2) beschrieben, wurden 200-250 g schweren Ratten die Kontrastmittel in die Cisterna suboccipitalis injiziert. Die Kontrastmittel wurden mit 3%iger Mannit-lösung verdünnt, um den osmotischen Druck anzupassen. • 4) Ratten (ca. 150 g Körpergewicht) wurde in Ithernarkose ein Polyäthylenschlauch in den Ductus choledochus eingebunden. Etwa eine Stunde nachdem die Tiere aus der Narkose erwacht waren, wurden die Kontrastmittel in einer Dosis von 60 mg Jod/kg intravenös injiziert und die Galle bis 3 Stunden nach der Injektion fraktioniert gesammelt. • 5) Intakten Ratten von etwa 100 g Körpergewicht wurde 20 Minuten vor der Verabreichung des Kontrastmittels 5 ml Wasser und dann in 1-stündigem Abstand nach der Verabreichung der Prüfsubstanzen 3 mal je 2 ml Wasser oral verabreicht. bis 3 Stunden nach der i.v. Injektion des Kontrastmittels in einer Dosis von 60 mg Jod/kg wurde der Harn quantitativ gesammelt. • 4), 5) die Messung des Kontrastmittels erfolgte entweder aufgrund der ^131J-Aktivität in den Proben oder bei nicht radioaktiv markierten Kontrastmitteln mit Hilfe der Röntgenfluoreszenz des Jods.

Data set [3] is described as follows: Protein binding to human serum. The settings on record: at ca. 1,2 mg Jod/ml, meglumine salts, read-out: Proteinbindung an Humanserum (converted). Type of data set: in vitro ADME.
A short description of data set [4]: Partition coefficient butanol/water. The format is physicochemical. The settings on record: meglumine salts.
Data set [5] relates to Ratte. The experiment in a line: Neural tolerance after pericerebral injection in rats (method of Valzelli). The settings on record: 0,04 ml injected, ca. 100 g rats, 24 h observation: excitation, posture anomalies, coma, death. Type of data set: in vivo. As to the method: as §1
In data set [6] the test system is Ratte. In words: Neural tolerance after intracisternal injection in rats. Type of data set: in vivo. The settings on record: injection into Cisterna suboccipitalis, 200-250 g rats, diluted with 3% mannitol solution. The method, then: as §1
For a further data set, the system named is Leber des Hundes. The experiment in a line: Maximum enrichment in dog liver by computed tomography. The settings on record: 360 mg Jod/kg i.v.; for maximale Anreicherung in der Leber des Hundes: meglumine salt solutions 180 mg Jod/ml, CT up to 90 min.
Data set [7] has as its system Leber. The settings on record: dog; cited from earlier work.
The subject of data set [8] is Leber. The settings on record: man; cited from earlier work.
Data set [9] in a line: in vivo. The settings on record: dog, iv.
Protocol: (§2) Die Werte wurden an gesunden weiblichen und männlichen Beagle-Hunden (Züchter: Schering) im Gewicht von 9-14 kg ermittelt.
(§3) Die Megluminsalzlösungen enthielten 180 mg Jod/ml.
(§4) Die Scanzeit betrug 20 Sekunden, die Röhrenspannung 120 kV. Bei einer Bildmatrix von 320 x 320 Elementen betrug die Standardabweichung vom Mittelwert eines normierten Wasserphantoms 1,6 % (d.h. + 8 EU = EMI-Units.
(§5) Die Auswertung der Computertomogramme stets des gleichen Leberareals erfolgte mit Hilfe der Auswerteeinheit "IVC" der Fa. EMI.

Protocol for Leber des Hundes: as §2, §3, §4, §5

In the case of `O=C(CCCCC(=O)Nc1c(I)cc(I)c(C(=O)O)c1I)Nc1c(I)cc(I)c(C(=O)O)c1I` [B, Iodipamid], the “DL50, i.v., Ratte” value in the data set with Ratte [1] is on record as 2,6 g Jod/kg. Moreover, in the data set “in vivo [2]”, the dose excreted at 0.5 h is 59.4% and the dose excreted at 3 h was found to be 91.5%. Moreover, the fraction unbound in data set [3] was 0.23. For the same compound, in data set [4], the “Verteilungskoeffizient Butanol/Wasser pH 7.4” value is recorded as 0,278 ± 0,008. Moreover, the “Ratte, pericerebral, ED50” value in the data set on Ratte [5] is reported as 6,35 (5,11-7,44) mg Jod/kg. In addition, the “Ratte, intrazisternal, ED50” value in the data set with Ratte [6] was 1,07 (0,54-1,83) mg Jod/kg.
As for `CNC(=O)c1c(I)c(NC(=O)CCCCCCCCC(=O)Nc2c(I)c(C(=O)O)c(I)c(C(=O)NC)c2I)c(I)c(C(=O)O)c1I` [D, Iosefamsäure], the “maximale Anreicherung in der Leber des Hundes” value with Leber des Hundes was 22,8 EMI-Units. The “maximale Anreicherung in der Leber des Hundes, min. p. appl.” value in the data set with Leber des Hundes (time of maximum enrichment) was 80 min. p. appl. The “Konzentration in der Leber” value in the data set on Leber [7] is recorded as “noch ausreichende”; in the data set on Leber [8], “nicht mehr genügende”.
As for `CNC(=O)c1c(I)c(NC(=O)CCCCC(=O)Nc2c(I)cc(I)c(C(=O)O)c2I)c(I)c(C(=O)O)c1I` [Verbindung A, Hexandisäure-1-(3-carboxy-2,4,6-trijod-anilid)-6-(3-carboxy-5-N-methylcarbamoyl-2,4,6-trijodanilid)], the “DL50, i.v., Ratte” value in the data set on Ratte [1] is 5,5 g Jod/kg. Moreover, in “in vivo [2]”, the dose excreted at 0.5 h is 61.3% and the dose excreted at 3 h is 85.9%. Also, the fraction unbound in [3] was 0.57. In [4], the “Verteilungskoeffizient Butanol/Wasser pH 7.4” value is 0,083 ± 0,001. Moreover, in the data set on Ratte [5], the “Ratte, pericerebral, ED50” value is on record as 17,1 (11,8-23,6) mg Jod/kg. Also, the “Ratte, intrazisternal, ED50” value with Ratte [6] is 15,6 (11,5-21,1) mg Jod/kg.
In the case of `CNC(=O)c1c(I)c(NC(=O)COCC(=O)N(C)c2c(I)cc(I)c(C(=O)O)c2I)c(I)c(C(=O)O)c1I` [E, 3-Oxapentan-disäure-l-(3-carboxy-2,4,6-trijod-N-methylanilid)-5-(3-carboxy-5N-methylcarbamoyl-2,4,6-trijodanilid)], the “maximale Anreicherung in der Leber des Hundes” value in the data set on Leber des Hundes is listed as 42,1 EMI-Units. Further, in the data set “in vivo [9]”, the Tmax was 1.5 h.

Usually Tmax stands for the time at which the peak concentration occurs.
